The record followed here is patent EP0796843B1, “1,25-dihydroxy-16,22,23-trisdehydro-cholecalciferol derivatives” (F. HOFFMANN-LA ROCHE AG, priority 1996, dated 1997).

For series [1], the system named is HaCaT cell line. Put plainly: Inhibition of keratinocyte proliferation (3H-thymidine uptake). It is filed as cell-based, human. To be noted: HaCaT cells, 3H-thymidine incorporation after 6 days of culture, concentration leading to 50% of control values.
Series [2] concerns Human T-cell. The series can be described thus: Inhibition of T-cell proliferation (3H-thymidine, PHA-stimulated). It is filed as cell-based. The procedure:
Mononuclear cells were isolated from venous blood of healthy donors by centrifugation of buffy coat leucocytes atop Ficoll-Paque. The lymphocytes (70-80% T-cells) were suspended in RPMI 1640 medium supplemented with 10% FCS and adjusted to 10^6 cells/ml. […] of this cell suspension were seeded into flat-bottom microtiter wells and stimulated with […] of PHA. Immediately after seeding, the test compounds listed below in Table V were added to yield final concentrations of between 1x10^-11 M -1 x 10^-6 M. All tests were run in the quadruplicates.
After 3 and 4 days, ^3H-thymidine (5 Ci/mmol) was added to wells at a concentration of […]. Cells were pulse-labeled for the last 6 hours of the growth period. Cells were then harvested on to a 96 well filter plate using a cell harvester. After drying at […] under vacuum for 20-30 minutes, 20 µl of scintillor were added and the radioactivity bound to the filters was counted. Values are expressed as percent controls (samples without test compounds). The concentration leading to 50% of control values is determined graphically and given as IC50 (inhibiting concentration) in Table V. TABLE V

Series [3] is described as follows: Calcium tolerance test in mice (highest tolerated dose, body weight). The series is classed as in vivo. To be noted: daily subcutaneous administration for 4 consecutive days, dose resulting in zero weight gain during 5 day treatment period. The text has this:
Profound changes in calcium homeostasis strongly affect the weight development of mice.
Mice (25-30 g body weight) received daily subcutaneous administrations of the compound for 4 consecutive days. Body weight was registered just before and at the end of a […] treatment period. The "highest tolerated dose" (HTD) is the dose which results in zero weight gain during this treatment period.

For series [4], the system named is Human T-cells. Put plainly: Inhibition of γ-interferon release in PHA-stimulated T-cells (ELISA). It is filed as cell-based. For orientation: ELISA stands for enzyme-linked immunosorbent assay.
Series [5] concerns HL-60 cells. The series can be described thus: Induction of HL-60 cell differentiation (NBT reduction). The series is classed as cell-based. To be noted: 3 days, concentration leading to 50% of maximal differentiation achieved with 100-1000 nM calcitriol, read-out: ED50 (the source's name).
Series [6] has as its system Sebaceous cells. The series can be described thus: Inhibition of sebaceous cell proliferation (cell count). To be noted: adult human sebaceous cells in vitro, amount necessary to inhibit proliferation by 50% vs vehicle control.
[7] abbreviates: human lymphocytes (70-80% T-cells) stimulated with PHA, 3H-thymidine after 3 and 4 days.
Where [8] appears, read: human lymphocytes (70-80% T-cells) stimulated with PHA, IFN-g by ELISA on days 3 and 4.

Usually IC50 stands for the point on the concentration scale where inhibition reaches its midpoint. A lower IC50 goes with greater potency in that assay.

With `C=C1/C(=C\C=C2/CCC[C@]3(C)C([C@H](C)C=C=CC(C)(C)O)=CC[C@@H]23)C[C@@H](O)C[C@@H]1O` [1,25-Dihydroxy-16,22S,23-triene-cholecalciferol], the IC50 came out at 40 nM in series [1], 6 nM in series [2] (setting [7]) and 3 nM in series [4] (setting [8]). Further, the HTD in series [3] came to 50.0 µg/kg. In series [5], the EC50 amounted to 4.8 nM. Further, the ED50 in series [6] (listed as 1a,25-dihydroxy-16,22S,23-triene-cholecalciferol) came to 10 nM.
For the compound `C=C1/C(=C\C=C2/CCC[C@]3(C)[C@@H]([C@H](C)CCCC(C)(C)O)CC[C@@H]23)C[C@@H](O)C[C@@H]1O` [1,25-Dihydroxy-cholecalciferol, reference compound], the IC50 was 55 nM in series [1] (Homo sapiens); 10 nM in series [2] (Homo sapiens, T-cell); 0.8 nM in series [4] (Homo sapiens, T-cell). Besides, the HTD in series [3] was 0.5 µg/kg. In series [6], the ED50 worked out at 50 nM.
For `C=C1/C(=C\C=C2/CCC[C@]3(C)C([C@H](C)C=C=CC(C)(C)O)=CC[C@@H]23)C[C@@H](O)C[C@@H]1O` [1,25-Dihydroxy-16,22R,23-triene-cholecalciferol], the IC50 came to 0.01 nM in series [1], 0.55 nM in series [2] (setting [7]) and 0.05 nM in series [4] (setting [8]). Also, the HTD in series [3] is 2.5 µg/kg. Also, in series [5], the EC50 came to 0.22 nM. Also, the ED50 in series [6] (listed as 1a,25-dihydroxy-16,22R,23-triene-cholecalciferol) stood at 1 nM.
